For series [1], the target named is T1, Protein-tyrosine sulfotransferase 2 (Homo sapiens, UniProt O60704).
T1 sequence (O60704 whole entry): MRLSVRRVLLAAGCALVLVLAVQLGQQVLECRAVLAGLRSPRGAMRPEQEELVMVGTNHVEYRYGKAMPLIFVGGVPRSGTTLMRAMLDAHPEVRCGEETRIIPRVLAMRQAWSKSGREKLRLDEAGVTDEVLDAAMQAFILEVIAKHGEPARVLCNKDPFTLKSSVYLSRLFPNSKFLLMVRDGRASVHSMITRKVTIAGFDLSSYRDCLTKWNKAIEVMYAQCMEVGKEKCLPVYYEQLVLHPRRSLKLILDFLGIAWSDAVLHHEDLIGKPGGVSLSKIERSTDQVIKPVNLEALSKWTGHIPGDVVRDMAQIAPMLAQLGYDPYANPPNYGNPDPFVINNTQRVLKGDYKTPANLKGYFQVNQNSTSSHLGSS
Briefly: Displacement of [35S]PAPS from human tyrosylprotein sulfotransferase-2 (hTPST-2). Details: concentration or dose not given beside the values. (In a radioligand displacement assay an active substance lowers the binding of a labelled ligand.)

Series [2] concerns the target T1, Protein-tyrosine sulfotransferase 2. Briefly: Inhibitory activity of compound was determined against human tyrosylprotein sulfotransferase-2 (hTPST-2) using [35S]PAPS radioligand.
Series [3] has the same target. In words: Inhibitory activity of compound was determined against human tyrosylprotein sulfotransferase-2 (hTPST-2) using [35S]PAPS radioligand at 800 uM.
Series [4] is described as follows: Inhibitory activity of compound was determined against bacterial GlcNAc-6-sulfotransferase (NodST) at 100 uM.
Series [5] has as its target T1, Protein-tyrosine sulfotransferase 2. Briefly: Compound was tested for reversible inhibition of human tyrosylprotein sulfotransferase-2 (hTPST-2) at 40 uM for 5 hours and dialyzed; complete reversible inhibition observed.
Series [6] concerns the target T2, Sulfotransferase 1E1 (Homo sapiens, UniProt P49888).
T2 sequence (P49888 whole entry): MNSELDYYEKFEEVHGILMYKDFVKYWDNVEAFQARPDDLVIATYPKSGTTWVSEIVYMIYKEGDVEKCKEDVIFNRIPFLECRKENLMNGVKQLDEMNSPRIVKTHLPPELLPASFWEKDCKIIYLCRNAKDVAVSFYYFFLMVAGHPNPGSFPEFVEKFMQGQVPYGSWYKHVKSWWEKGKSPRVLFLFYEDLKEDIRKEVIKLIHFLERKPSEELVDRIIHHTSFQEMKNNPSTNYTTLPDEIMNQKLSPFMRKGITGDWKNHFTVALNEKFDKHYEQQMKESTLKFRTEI
In words: Compound was tested for inhibition against estrogen sulfotransferase (EST), a human cytosolic sulfotransferase.

In series [7] the target is T3, estrogen sulfotransferase (Sulfotransferase 1E1) (Homo sapiens, UniProt P49888).
T3 sequence (P49888 whole entry): T2 sequence (P49888 whole entry)
Briefly: Inhibitory activity of compound was determined against estrogen sulfotransferase at 100 uM.

Series [8] has as its target T4, Carbohydrate sulfotransferase 4 (Homo sapiens) (UniProt Q8NCG5).
T4 sequence (whole entry): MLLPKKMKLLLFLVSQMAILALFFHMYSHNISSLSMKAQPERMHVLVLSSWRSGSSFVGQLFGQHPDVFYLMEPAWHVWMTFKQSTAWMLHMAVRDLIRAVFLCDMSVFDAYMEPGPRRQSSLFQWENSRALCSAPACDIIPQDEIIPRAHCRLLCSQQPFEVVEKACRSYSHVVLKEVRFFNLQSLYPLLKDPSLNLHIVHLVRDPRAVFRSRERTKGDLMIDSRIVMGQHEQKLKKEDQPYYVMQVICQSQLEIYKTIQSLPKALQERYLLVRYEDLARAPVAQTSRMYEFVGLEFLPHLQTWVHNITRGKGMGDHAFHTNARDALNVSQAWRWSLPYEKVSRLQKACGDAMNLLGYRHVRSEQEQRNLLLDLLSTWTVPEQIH
In words: Inhibitory activity of compound was determined against human high endothelial cell (HEC) GlcNAc-6-ST sulfotransferase at 100 uM. In kind it is cell-based.

The target of series [9] is T2, Sulfotransferase 1E1. Briefly: Compound was tested for inhibition against estrogen sulfotransferase (EST), a human cytosolic sulfotransferase.
The target of series [10] is T3, estrogen sulfotransferase (Sulfotransferase 1E1). In words: Inhibitory activity of compound was determined against human estrogen sulfotransferase at 100 uM.
The target in series [11] is T1, Protein-tyrosine sulfotransferase 2. In words: Compound was tested for reversible inhibition of human tyrosylprotein sulfotransferase-2 (hTPST-2) at 40 uM for 5 hours and dialyzed.

Consider 20 molecules from ChEMBL document CHEMBL1135027, “Tyrosylprotein sulfotransferase inhibitors generated by combinatorial target-guided ligand assembly” (Bioorg Med Chem Lett, 2002).

Bounds are passed on as bounds.

Usually Inhibition stands for the drop in the measured response relative to a control, in per cent. In the case of `CO/N=C/c1coc2cc(C)c(C)cc2c1=O`, the Inhibition in series [1] turned out to be 35%. On the same count and under the same terms, next, `CO/N=C/c1c(O)ccc2ccccc12`: 34%; `CO/N=C/c1ccc(-c2ccc(Cl)cc2)o1`: 70%.

`CO/N=C/c1cccc(F)c1O` had an Inhibition in series [1] of 25%. The same measure, in the same setting: next, `CO/N=C/C(=C/c1ccco1)c1ccccc1`: 55%. On to `CO/N=C/c1ccc([N+](=O)[O-])s1`, for which, in series [1], the Inhibition is 65%. Same read-out and setting: with `CO/N=C/c1coc2ccc(Br)cc2c1=O` the figure was 85%. On the same count and under the same terms, next, `CO/N=C/c1cc(I)cc(I)c1O`: 48%. For `CO/N=C/c1cc(OC)c(O)c(OC)c1`, the Inhibition in series [1] was found to be 37%. Still for that read-out and setting: next, `CO/N=C/C=C/c1ccc([N+](=O)[O-])o1`: 47%; `CO/N=C/c1cc(C)cc(Br)c1O`: 31%.

By IC50 is commonly meant the concentration that gives 50% inhibition. For orientation: inhibition means the percentage by which the read-out fell short of the control. The molecule `CO/N=C/c1coc2c(Cl)cc(Cl)cc2c1=O` registered an IC50 in series [2] of more than 1000 µM. The same molecule came in with an inhibition at 800 µM in series [3] of 40%. The molecule `CO/N=C/c1cc(Br)c(O)c(Br)c1` yielded an IC50 in [2] of 425 µM. Consider `CO/N=C/c1c(N)oc2ccccc2c1=O`, for which the Inhibition in series [1] came out at 45%. The same measure, in the same setting: with `CO/N=C/c1ccc(-c2cccc(Cl)c2)o1` the figure was 50%. `CO/N=C/c1cc(Br)cc([N+](=O)[O-])c1O` showed an IC50 in [2] of more than 1000 µM. On to `O=c1c(/C=N/OCCCCCO/N=C/c2cc(Br)c(O)c(Br)c2)coc2c(Cl)cc(Cl)cc12`, for which the values for the inhibition in series [4] and in series [8] were 66% and 30%, respectively. For the same molecule, the Inhibition result in [5] was “complete reversible inhibition observed”. Moreover, the IC50 turned out to be 0.25 µM against Sulfotransferase 1E1 [6] and 30 µM in series [2]. In [7], the inhibition at 100 µM was found to be 100%.

As for `O=c1c(/C=N/OCCCCCO/N=C/c2cc(Br)cc([N+](=O)[O-])c2O)coc2c(Cl)cc(Cl)cc12`, the results for the inhibition in series [4] and in series [8] were 19% and 7%, respectively. The figures for the IC50 (in [2]; at Sulfotransferase 1E1 [9]) were 40 µM and 3 µM, respectively. Further, the inhibition at 100 µM in [10] was found to be 100%. The molecule further showed an inhibition at 40 µM in series [11] of 50%. In turn, `CO/N=C/C(C)=C/c1ccco1` displayed an Inhibition in [1] of 59%. On the same count and under the same terms, with `CO/N=C/c1cc(I)c(O)c(OC)c1` the figure was 53%.
